Several values for one entry are separate records, joined by “and”; a condition that tells them apart may be missing. Identical values can stand only once. Toxic doses and inconclusive results are not listed.
System: CD2F1 mice, L1210 leukemia ip, survival T/C
Assay: NCI In Vivo Anticancer Drug Screen. Data for tumor model L1210 Leukemia (intraperitoneal) in CD2F1 (CDF1) mice
Conditions: endpoint: mean survival time, higher = longer survival
Outline: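 Read-out first: treated-group measurement over vehicle-control measurement, expressed as a ratio. Animals bore a transplanted tumor line and were dosed with compound or vehicle.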

[1] = dose: 100.0 mg/kg/injection, schedule: Q01DX001 (ip), vehicle: saline
[2] = dose: 200.0 mg/kg/injection, schedule: Q01DX001 (ip), vehicle: saline
[3] = dose: 400.0 mg/kg/injection, schedule: Q01DX001 (ip), vehicle: saline
[4] = dose: 25.0 mg/kg/injection, schedule: Q01DX009 (ip), vehicle: saline with Tween-80
[5] = dose: 100.0 mg/kg/injection, schedule: Q04DX003 (ip), vehicle: saline with Tween-80
[6] = dose: 100.0 mg/kg/injection, schedule: Q01DX009 (ip), vehicle: saline with Tween-80
[7] = dose: 400.0 mg/kg/injection, schedule: Q01DX009 (ip), vehicle: saline with Tween-80
[8] = dose: 200.0 mg/kg/injection, schedule: Q01DX009 (ip), vehicle: saline with Tween-80
[9] = dose: 200.0 mg/kg/injection, schedule: Q04DX003 (ip), vehicle: saline with Tween-80
[10] = dose: 400.0 mg/kg/injection, schedule: Q04DX003 (ip), vehicle: saline with Tween-80
[11] = dose: 100.0 mg/kg/injection, schedule: Q01DX009 (ip), vehicle: saline
[12] = dose: 200.0 mg/kg/injection, schedule: Q01DX009 (ip), vehicle: saline

CC(=O)OCC1OC(n2ncc3c(Sc4c([N+](=O)[O-])ncn4C)ncnc32)C(OC(C)=O)C1OC(C)=O (centres undefined)
T/C (dose: 25.0 mg/kg/injection, schedule: Q01DX009 (ip), vehicle: other): 100 % of control | T/C (dose: 50.0 mg/kg/injection, schedule: Q01DX009 (ip), vehicle: other): 102 % of control | T/C (dose: 100.0 mg/kg/injection, schedule: Q01DX009 (ip), vehicle: other): 100 % of control

COC(=O)CC(CC(=O)OC)N1CC=CC1
T/C [1]: 100 % of control | T/C [2]: 98 % of control | T/C [3]: 108 % of control

COc1ccc2c(c1)C/C(=N\O)C2=O
T/C [4]: 93 % of control | T/C (dose: 25.0 mg/kg/injection, schedule: Q04DX003 (ip), vehicle: saline with Tween-80): 95 % of control | T/C (dose: 50.0 mg/kg/injection, schedule: Q01DX009 (ip), vehicle: saline with Tween-80): 97 % of control | T/C (dose: 50.0 mg/kg/injection, schedule: Q04DX003 (ip), vehicle: saline with Tween-80): 93 % of control | T/C [5]: 91 % of control

C=C1C(=O)OC2CCN3CC=C(COC(=O)C(C)(O)C4(CO4)C1C)C23 (centres undefined)
T/C (dose: 75.0 mg/kg/injection, schedule: Q01DX001 (ip), vehicle: saline): 107 % of control

Cc1nc(Cl)cc(Cl)c1C
T/C (dose: 178.0 mg/kg/injection, schedule: Q04DX003 (ip), vehicle: other): 100 % of control | T/C (dose: 266.0 mg/kg/injection, schedule: Q04DX003 (ip), vehicle: other): 100 % of control | T/C (dose: 400.0 mg/kg/injection, schedule: Q04DX003 (ip), vehicle: other): 95 % of control | T/C (dose: 600.0 mg/kg/injection, schedule: Q04DX003 (ip), vehicle: other): 105 % of control

CC(C)(CC(=O)O)c1ccccc1
T/C (dose: 100.0 mg/kg/injection, schedule: Q04DX003 (ip), vehicle: saline sonified): 97 % of control | T/C (dose: 200.0 mg/kg/injection, schedule: Q04DX003 (ip), vehicle: saline sonified): 101 % of control | T/C (dose: 400.0 mg/kg/injection, schedule: Q04DX003 (ip), vehicle: saline sonified): 97 % of control

CCOC(=O)C(C(=O)OCC)c1cc(NC(=O)c2ccccc2)ccc1NC(=O)c1ccccc1
T/C [6]: 87 % of control | T/C [7]: 93 % of control

O=C(NC(O)C(Cl)(Cl)Cl)c1ccccc1 (centres undefined)
T/C [6]: 94 % of control | T/C [5]: 107 % of control | T/C [8]: 89 % of control | T/C [9]: 107 % of control | T/C [7]: 91 % of control | T/C [10]: 107 % of control

O=CN(O)CC(=O)O.[Ni]
T/C (dose: 12.5 mg/kg/injection, schedule: Q04DX003 (ip), vehicle: saline): 102 % of control | T/C (dose: 25.0 mg/kg/injection, schedule: Q04DX003 (ip), vehicle: saline): 102 % of control

CNC=O
T/C [11]: 103 % of control and 111 % of control | T/C [12]: 112 % of control | T/C (dose: 800.0 mg/kg/injection, schedule: Q01DX009 (ip), vehicle: saline): 164 % of control

O=C(c1ccccc1)N(C(=O)c1ccccc1)c1cccc(N(C(=O)c2ccccc2)C(=O)c2ccccc2)n1
T/C (dose: 50.0 mg/kg/injection, schedule: Q04DX002 (ip), vehicle: saline with Tween-80): 101 % of control | T/C (dose: 100.0 mg/kg/injection, schedule: Q04DX002 (ip), vehicle: saline with Tween-80): 97 % of control | T/C (dose: 200.0 mg/kg/injection, schedule: Q04DX002 (ip), vehicle: saline with Tween-80): 93 % of control

CC1(C)CC(=O)NC1=O
T/C [11]: 100 % of control | T/C [12]: 102 % of control | T/C (dose: 400.0 mg/kg/injection, schedule: Q01DX009 (ip), vehicle: saline): 94 % of control

CCCC(O)C1CCCCC1O (centres undefined)
T/C [6]: 92 % of control | T/C [8]: 92 % of control | T/C [7]: 96 % of control

N#CCC(=O)NN=C1CCCCC1
T/C [1]: 102 % of control | T/C [2]: 123 % of control | T/C [3]: 107 % of control

CCN(CC)CCCNC1=C(Cl)C(=O)c2ccccc2C1=O
T/C (dose: 6.25 mg/kg/injection, schedule: Q01DX009 (ip), vehicle: saline with Tween-80): 100 % of control | T/C (dose: 12.5 mg/kg/injection, schedule: Q01DX009 (ip), vehicle: saline with Tween-80): 94 % of control | T/C [4]: 103 % of control

O=c1[nH]c(-c2ccccc2)nc(Cc2ccccc2)c1CCO
T/C [5]: 89 % of control | T/C [9]: 89 % of control | T/C [10]: 91 % of control

Clc1nc2ccccc2nc1CI
T/C (dose: 100.0 mg/kg/injection, schedule: Q04DX003 (ip), vehicle: acetone): 100 % of control

Cc1ccc(NC(=O)COc2ccc(Cl)cc2Cl)cc1Cl
T/C [5]: 93 % of control | T/C [9]: 98 % of control | T/C [10]: 88 % of control

— PubChem BioAssay AID256 (DTP/NCI, 2004)
